Laboratory results as given in US10131652B2, “Pyrimidinyloxy benzene derivatives as herbicides” (E. I. DU PONT DE NEMOURS AND COMPANY, priority 2014, dated 2018).

Key:
Format in all cases: in vivo
[1] = tested on: barnyardgrass (Echinochloa crus-galli); test: Test B pre-/postemergence plant response
Outline: (§1)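 Visual injury scores on a 0–100 scale (100 = complete control) relative to untreated plants, taken about 10 days post-treatment in greenhouse. Treatments were a directed preemergence soil spray and a postemergence spray at one- to two-leaf stage, using surfactant-containing solvent formulation.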

corn (Zea mays) [2] = test: Test B pre-/postemergence plant response
Outline: as §1

[3] = tested on: giant foxtail (Setaria faberii); test: Test B pre-/postemergence plant response
Outline: as §1

[4] = tested on: pigweed (Amaranthus retroflexus); test: Test B pre-/postemergence plant response
Outline: as §1

[5] = tested on: wheat (Triticum aestivum); test: Test B pre-/postemergence plant response
Outline: as §1

[6] = tested on: Italian ryegrass (Lolium multiflorum); test: Test D pre-/postemergence plant response; conditions: Postemergence; for Ryegrass, Italian plant response rating: 31 g ai/ha, scale 0 to 100 (0 no effect, 100 complete control); for Plant response rating, Ryegrass, Italian: scale 0 to 100, 0 no effect, 100 complete control
Outline: (§2)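 Visual rating, 0–100 scale (0 = no effect, 100 = complete control), versus untreated controls 13 to 15 days after treatment in greenhouse. Preemergence: seeds in loam/sand soil. Postemergence: 2 to 18 cm plants, 1- to 4-leaf stage, peat-based medium. Compounds formulated in non-phytotoxic solvent plus surfactant.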

corn (Zea mays) [7] = test: Test D pre-/postemergence plant response; conditions: Postemergence; for Corn plant response rating: scale 0 to 100 (0 no effect, 100 complete control); for Plant response rating, Corn: scale 0 to 100, 0 no effect, 100 complete control
Outline: as §2

[8] = tested on: galium (catchweed bedstraw, Galium aparine); test: Test D pre-/postemergence plant response; conditions: Postemergence; for Galium plant response rating: 31 g ai/ha, scale 0 to 100 (0 no effect, 100 complete control); for Plant response rating, Galium: scale 0 to 100, 0 no effect, 100 complete control
Outline: as §2

[9] = tested on: lambsquarters (Chenopodium album); test: Test D pre-/postemergence plant response; conditions: Postemergence; for Lambsquarters plant response rating: 31 g ai/ha, scale 0 to 100 (0 no effect, 100 complete control); for Plant response rating, Lambsquarters: scale 0 to 100, 0 no effect, 100 complete control
Outline: as §2

[10] = tested on: large (Lg) crabgrass (Digitaria sanguinalis); test: Test D pre-/postemergence plant response; conditions: Postemergence; for Crabgrass, Large plant response rating: scale 0 to 100 (0 no effect, 100 complete control); for Plant response rating, Crabgrass, Large: scale 0 to 100, 0 no effect, 100 complete control
Outline: as §2

[11] = tested on: morningglory (Ipomoea coccinea); test: Test D pre-/postemergence plant response; conditions: Postemergence; for Morningglory plant response rating: 31 g ai/ha, scale 0 to 100 (0 no effect, 100 complete control); for Plant response rating, Morningglory: scale 0 to 100, 0 no effect, 100 complete control
Outline: as §2

[12] = tested on: ragweed (common ragweed, Ambrosia elatior); test: Test D pre-/postemergence plant response; conditions: Postemergence; for Ragweed plant response rating: 31 g ai/ha, scale 0 to 100 (0 no effect, 100 complete control); for Plant response rating, Ragweed: scale 0 to 100, 0 no effect, 100 complete control
Outline: as §2

soybean (Glycine max) = test: Test D pre-/postemergence plant response; conditions: Postemergence; for Soybean plant response rating: 31 g ai/ha, scale 0 to 100 (0 no effect, 100 complete control); for Plant response rating, Soybean: scale 0 to 100, 0 no effect, 100 complete control
Outline: as §2

[13] = tested on: waterhemp (common waterhemp, Amaranthus rudis); test: Test D pre-/postemergence plant response; conditions: Postemergence; for Waterhemp plant response rating: 31 g ai/ha, scale 0 to 100 (0 no effect, 100 complete control); for Plant response rating, Waterhemp: scale 0 to 100, 0 no effect, 100 complete control
Outline: as §2

[14] = tested on: winter wheat (Triticum aestivum); test: Test D pre-/postemergence plant response; conditions: Postemergence; for Wheat plant response rating: 31 g ai/ha, scale 0 to 100 (0 no effect, 100 complete control); for Plant response rating, Wheat: scale 0 to 100, 0 no effect, 100 complete control
Outline: as §2

[15] = tested on: yellow nutsedge (Cyperus esculentus); test: Test D pre-/postemergence plant response; conditions: Postemergence; for Nutsedge, Yellow plant response rating: 31 g ai/ha, scale 0 to 100 (0 no effect, 100 complete control); for Plant response rating, Nutsedge, Yellow: scale 0 to 100, 0 no effect, 100 complete control
Outline: as §2

[16] = 125 g ai/ha, postemergence, 0 to 100 scale, 0 no effect, 100 complete control
[17] = Postemergence, 500 g ai/ha, 0 to 100 scale (0 no effect, 100 complete control)
[18] = Preemergence, 125 g ai/ha, 0 to 100 scale (0 no effect, 100 complete control)
[19] = Preemergence, 500 g ai/ha, 0 to 100 scale where 0 is no effect and 100 is complete control

Cc1cc(-c2ccccc2Oc2ncc(Cl)cn2)no1 [Compound 153]
Plant response rating, Barnyardgrass [1, 16]: 0 | Plant response rating, Barnyardgrass [1, 17]: 70 | Barnyardgrass plant response rating [1, 18]: 0 | Plant response rating, Barnyardgrass [1, 19]: 100 | Plant response rating, Corn (corn (Zea mays) [2]; [16]): 30 | Plant response rating, Corn (corn (Zea mays) [2]; [17]): 40 | Plant response rating, Foxtail, Giant [3, 16]: 20 | Plant response rating, Foxtail, Giant [3, 17]: 90 | Foxtail, Giant plant response rating [3, 18]: 30 | Plant response rating, Foxtail, Giant [3, 19]: 100 | Plant response rating, Pigweed [4, 16]: 100 | Plant response rating, Pigweed [4, 17]: 100 | Pigweed plant response rating [4, 18]: 100 | Plant response rating, Pigweed [4, 19]: 100 | Plant response rating, Wheat [5, 16]: 30 | Plant response rating, Wheat [5, 17]: 50 | Ryegrass, Italian plant response rating [6]: 0 | Plant response rating, Ryegrass, Italian ([6]; 62 g ai/ha): 0 | Plant response rating, Ryegrass, Italian ([6]; 125 g ai/ha): 0 | Corn plant response rating (corn (Zea mays) [7]; 16 g ai/ha): 0 | Corn plant response rating (corn (Zea mays) [7]; 31 g ai/ha): 0 | Plant response rating, Corn (corn (Zea mays) [7]; 62 g ai/ha): 5 | Plant response rating, Corn (corn (Zea mays) [7]; 125 g ai/ha): 5 | Galium plant response rating [8]: 70 | Plant response rating, Galium ([8]; 62 g ai/ha): 70 | Plant response rating, Galium ([8]; 125 g ai/ha): 80 | Lambsquarters plant response rating [9]: 35 | Plant response rating, Lambsquarters ([9]; 62 g ai/ha): 30 | Plant response rating, Lambsquarters ([9]; 125 g ai/ha): 50 | Crabgrass, Large plant response rating ([10]; 16 g ai/ha): 0 | Crabgrass, Large plant response rating ([10]; 31 g ai/ha): 5 | Plant response rating, Crabgrass, Large ([10]; 62 g ai/ha): 5 | Plant response rating, Crabgrass, Large ([10]; 125 g ai/ha): 10 | Morningglory plant response rating [11]: 5 | Plant response rating, Morningglory ([11]; 62 g ai/ha): 15 | Plant response rating, Morningglory ([11]; 125 g ai/ha): 25 | Ragweed plant response rating [12]: 10 | Plant response rating, Ragweed ([12]; 62 g ai/ha): 25 | Plant response rating, Ragweed ([12]; 125 g ai/ha): 55 | Soybean plant response rating (soybean (Glycine max)): 40 | Plant response rating, Soybean (soybean (Glycine max); 62 g ai/ha): 70 | Plant response rating, Soybean (soybean (Glycine max); 125 g ai/ha): 90 | Waterhemp plant response rating [13]: 10 | Plant response rating, Waterhemp ([13]; 62 g ai/ha): 35 | Plant response rating, Waterhemp ([13]; 125 g ai/ha): 65 | Wheat plant response rating [14]: 0 | Plant response rating, Wheat ([14]; 62 g ai/ha): 5 | Plant response rating, Wheat ([14]; 125 g ai/ha): 10 | Nutsedge, Yellow plant response rating [15]: 0 | Plant response rating, Nutsedge, Yellow ([15]; 62 g ai/ha): 5 | Plant response rating, Nutsedge, Yellow ([15]; 125 g ai/ha): 5

FC(F)(F)c1cc(-c2c(I)cccc2Oc2ncc(Cl)cn2)no1 [Compound 156]
Plant response rating, Barnyardgrass [1, 16]: 0 | Plant response rating, Barnyardgrass [1, 17]: 20 | Barnyardgrass plant response rating [1, 18]: 0 | Plant response rating, Barnyardgrass [1, 19]: 20 | Plant response rating, Corn (corn (Zea mays) [2]; [16]): 20 | Plant response rating, Corn (corn (Zea mays) [2]; [17]): 40 | Plant response rating, Foxtail, Giant [3, 16]: 20 | Plant response rating, Foxtail, Giant [3, 17]: 90 | Foxtail, Giant plant response rating [3, 18]: 20 | Plant response rating, Foxtail, Giant [3, 19]: 80 | Plant response rating, Pigweed [4, 16]: 90 | Plant response rating, Pigweed [4, 17]: 100 | Pigweed plant response rating [4, 18]: 80 | Plant response rating, Pigweed [4, 19]: 100 | Plant response rating, Wheat [5, 16]: 20 | Plant response rating, Wheat [5, 17]: 30 | Plant response rating (scale 0 to 100), Ryegrass, Italian ([6]; 8 g ai/ha): 0 | Ryegrass, Italian plant response rating [6]: 0 | Plant response rating, Ryegrass, Italian ([6]; 62 g ai/ha): 0 | Plant response rating (scale 0 to 100), Corn (corn (Zea mays) [7]; 8 g ai/ha): 0 | Corn plant response rating (corn (Zea mays) [7]; 16 g ai/ha): 5 | Corn plant response rating (corn (Zea mays) [7]; 31 g ai/ha): 5 | Plant response rating, Corn (corn (Zea mays) [7]; 62 g ai/ha): 5 | Plant response rating (scale 0 to 100), Galium ([8]; 8 g ai/ha): 20 | Galium plant response rating [8]: 60 | Plant response rating, Galium ([8]; 62 g ai/ha): 70 | Plant response rating (scale 0 to 100), Lambsquarters ([9]; 8 g ai/ha): 10 | Lambsquarters plant response rating [9]: 35 | Plant response rating, Lambsquarters ([9]; 62 g ai/ha): 40 | Plant response rating (scale 0 to 100), Crabgrass, Large ([10]; 8 g ai/ha): 0 | Crabgrass, Large plant response rating ([10]; 16 g ai/ha): 5 | Crabgrass, Large plant response rating ([10]; 31 g ai/ha): 5 | Plant response rating, Crabgrass, Large ([10]; 62 g ai/ha): 10 | Plant response rating (scale 0 to 100), Morningglory ([11]; 8 g ai/ha): 5 | Morningglory plant response rating [11]: 15 | Plant response rating, Morningglory ([11]; 62 g ai/ha): 65 | Plant response rating (scale 0 to 100), Ragweed ([12]; 8 g ai/ha): 0 | Ragweed plant response rating [12]: 10 | Plant response rating, Ragweed ([12]; 62 g ai/ha): 15 | Plant response rating (scale 0 to 100), Soybean (soybean (Glycine max); 8 g ai/ha): 5 | Soybean plant response rating (soybean (Glycine max)): 25 | Plant response rating, Soybean (soybean (Glycine max); 62 g ai/ha): 30 | Plant response rating (scale 0 to 100), Waterhemp ([13]; 8 g ai/ha): 5 | Waterhemp plant response rating [13]: 70 | Plant response rating, Waterhemp ([13]; 62 g ai/ha): 90 | Plant response rating (scale 0 to 100), Wheat ([14]; 8 g ai/ha): 0 | Wheat plant response rating [14]: 5 | Plant response rating, Wheat ([14]; 62 g ai/ha): 10 | Plant response rating (scale 0 to 100), Nutsedge, Yellow ([15]; 8 g ai/ha): 0 | Nutsedge, Yellow plant response rating [15]: 5 | Plant response rating, Nutsedge, Yellow ([15]; 62 g ai/ha): 5
